≈ marks a conversion by molar mass, not a printed value.
Key:
[1] = system: Klebsiella pneumoniae JS265; experiment: MIC assay; assay type: cell-based
Protocol: (§1) The antibacterial activity of the compounds was tested against a panel of bacteria, including Gram-positive bacteria (S. aureus ATCC29213, S. aureus USA300, S. aureus LIM-2, NR-45881, S. aureus HIP13419, NR-46413, E. faecium E155, E. faecium E7314, E. faecium E980, E. faecalis E1246, E. faecalis E7406 and S. pneumonia 153). The antibacterial activity of the compounds was further tested against S. aureus NY-155, NR-46236, S. aureus HIP12864, NR-46074, S. aureus 880 (BR-VRSA), NR-49120, E. faecalis E1246, E. faecalis E7604, as well as some Gram-negative bacteria (Escherichia coli and Klebsiella pneumoniae). Minimum inhibitory concentrations (MICs) in μg/mL were performed according to the CLSI guidelines. From glycerol stocks, bacterial strains were cultured on blood agar plates and incubated at 37° C. for 18 h. A single colony was transferred to tryptic soy broth (TSB) with 0.002% polysorbate 80 (p80). For the Enterococcus, VISA and VRSA strains, the cultures were grown at 37° C. until the optical density of the suspension reached a level equivalent to the 0.5 McFarland standard. The bacterial suspensions were diluted in TSB with 0.002% p80 to reach a bacterial cell density of 10^6 CFU/mL. In case of the other (vancomycin-sensitive) S. aureus strains, the direct colony suspension method was used. For these strains, after transfer of the colonies to TSB with 0.002% p80, they were immediately diluted to 10^6 CFU/mL, instead of incubated prior to this dilution. In the case of S. pneumonia, direct colony suspension was used by immediately suspending multiple colonies from fresh blood agar plates in TSB+0.002% p80 to an OD600 of 0.5 and subsequent dilution to 10^6 CFU mL^−1 in TSB+0.002% p80+5% lysed horse blood. Antibiotic dilutions for this strains were also made in TSB+0.002% p80+5% lysed horse blood. Both agar and microplates containing S. pneumonia were incubated at 37° C. with 5% CO2 for 24 h with constant shaking (600 rpm). […] The cultures were grown to exponential phase (OD600=0.5) at 37° C. […] In polypropylene 96-well microtiter plates, test compounds were added in biological triplicates and serial diluted 2-fold by transfer and mixing from one well to the next to achieve a final volume of 50 μL per well. An equal volume of bacterial suspension (10^6 CFU mL^−1) was added to the wells. The plates were sealed with breathable membranes and incubated at 37° C. for 24 h with constant shaking (600 rpm). In polypropylene microtiter plates, 100 μL of the test compounds was added to the first row in biological triplicates, and 50 μL of media was added to the other wells. The compounds were subjected to serial dilution by transfer and mixing of 50 μL from one well to the next. Subsequently, 50 μL of bacterial suspension (10^6 CFU/mL) was added to the wells. The plates were sealed with breathable membranes and incubated at 37° C. for 24 h with constant shaking (600 rpm). Positive growth control consisted of wells with bacterial suspension and without antibiotic. Negative growth control consisted of solely media without bacterial suspension or antibiotic. The MICs were determined from the median of a minimum of triplicates.

[2] = system: Escherichia coli ATCC 25922; experiment: MIC assay; assay type: cell-based
Protocol: as §1

[3] = system: Escherichia coli ATCC 35218; experiment: MIC assay; assay type: cell-based
Protocol: as §1

Escherichia coli W3110 = experiment: MIC assay; assay type: cell-based
Protocol: as §1

[4] = system: Klebsiella pneumoniae ATCC 13883; experiment: MIC assay; assay type: cell-based
Protocol: as §1

[5] = system: Klebsiella pneumoniae ATCC 27736; experiment: MIC assay; assay type: cell-based
Protocol: as §1

S. pneumoniae 153 = experiment: MIC assay; assay type: cell-based; conditions: S. pneumoniae 153; TSB+0.002% p80+5% lysed horse blood
Protocol: as §1

[6] = system: S. aureus HIP13419, NR-46413; experiment: microbe, parasite or virus in culture; assay type: cell-based, Staphylococcus aureus; conditions: S. aureus HIP13419, NR-46413 VRSA
Protocol: as §1

S. aureus USA300 = experiment: microbe, parasite or virus in culture; assay type: cell-based, Staphylococcus aureus
Protocol: as §1

E. faecalis E7604 = experiment: microbe, parasite or virus in culture; assay type: cell-based, Enterococcus faecalis; conditions: E. faecalis E7604 VRE (vanB)
Protocol: as §1

E. faecalis E7406 = experiment: microbe, parasite or virus in culture; assay type: cell-based, Enterococcus faecalis; conditions: E. faecalis E7406 VRE (VanB)
Protocol: as §1

E. faecalis E1246 = experiment: MIC assay; assay type: cell-based, Enterococcus faecalis
Protocol: as §1

E. faecium E1441 = experiment: MIC assay; assay type: cell-based, Enterococcus faecium; conditions: E. faecium E1441, VanA
E. faecium E2359 = experiment: MIC assay; assay type: cell-based, Enterococcus faecium; conditions: E. faecium E2359, VanB
E. faecium E1763 = experiment: MIC assay; assay type: cell-based, Enterococcus faecium; conditions: E. faecium E1763, VanA
Summary of the method: (§2)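 Read-out: lowest concentration inhibiting growth, reported as the median MIC (μg/mL) over ≥ triplicates. Set-up: CLSI method, TSB with 0.002% polysorbate 80, 10^6 CFU/mL inoculum added in equal volume to 2-fold dilutions, 37 °C for 24 h with 600 rpm agitation.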

E. faecium E0300 = experiment: MIC assay; assay type: cell-based, Enterococcus faecium; conditions: E. faecium E0300, VanA
Summary of the method: as §2

E. faecium E7401 = experiment: MIC assay; assay type: cell-based, Enterococcus faecium; conditions: E. faecium E7401, VanB
Summary of the method: as §2

E. faecium E0072 = experiment: MIC assay; assay type: cell-based, Enterococcus faecium; conditions: E. faecium E0072, VanA
Summary of the method: as §2

E. faecium E0506 = experiment: MIC assay; assay type: cell-based, Enterococcus faecium; conditions: E. faecium E0506, VanA
Summary of the method: as §2

E. faecium E8218 = experiment: MIC assay; assay type: cell-based, Enterococcus faecium; conditions: E. faecium E8218, VanB
Summary of the method: as §2

E. faecium E8235 = experiment: MIC assay; assay type: cell-based, Enterococcus faecium; conditions: E. faecium E8235, VanB
Summary of the method: as §2

[7] = E. faecalis E1246 VRE (VanA), Table 7
[8] = E. faecalis E1246 VRE (vanA), Table 9

| Structure (SMILES) | MIC [1] | MIC [2] | MIC [3] | MIC (Escherichia coli W3110) | MIC [4] | MIC [5] | MIC (S. pneumoniae 153) | MIC [6] | MIC (S. aureus USA300; MRSA USA300, TSB + 0.002% p80) | MIC (S. aureus USA300; S. aureus USA300 MRSA) | MIC (E. faecalis E7604) | MIC (E. faecalis E7406) | MIC (E. faecalis E1246; [7]) | MIC (E. faecalis E1246; [8]) | MIC (E. faecium E1441) | MIC (E. faecium E2359) | MIC (E. faecium E1763) | MIC (E. faecium E0300) | MIC (E. faecium E7401) | MIC (E. faecium E0072) | other results |
| --- | --- | --- | --- | --- | --- | --- | --- | --- | --- | --- | --- | --- | --- | --- | --- | --- | --- | --- | --- | --- | --- |
| CCCCCCCNC(N)=Nc1ccc(CN[C@@]2(C)C[C@H](O[C@H]3[C@H](Oc4c5cc6cc4Oc4ccc(cc4Cl)[C@@H](O)[C@@H](NC(=O)[C@@H](CC(C)C)NC)C(=O)N[C@@H](CC(N)=O)C(=O)N[C@H]6C(=O)N[C@H]4C(=O)N[C@H](C(=O)N[C@H](C(=O)O)c6cc(O)cc(O)c6-c6cc4ccc6O)[C@H](O)c4ccc(c(Cl)c4)O5)O[C@H](CO)[C@@H](O)[C@@H]3O)O[C@@H](C)[C@H]2O)cc1 [Compound 5] | >128 µg/mL | >128 µg/mL | >128 µg/mL | >128 µg/mL | >128 µg/mL | >128 µg/mL | ≤0.008 µg/mL | 1 µg/mL (≈ 0.59 µM) | 0.016 µg/mL | 0.01562 µg/mL (≈ 0.00922 µM) | 0.016 µg/mL (≈ 0.00944 µM) | 0.01562 µg/mL (≈ 0.00922 µM) | 16 µg/mL (≈ 9.44 µM) | 16 µg/mL (≈ 9.44 µM) | 4 µg/mL (≈ 2.36 µM) | ≤0.008 µg/mL | 0.25 µg/mL (≈ 0.148 µM) | 4 µg/mL (≈ 2.36 µM) | ≤0.008 µg/mL | 0.25 µg/mL (≈ 0.148 µM) | MIC (E. faecium E0506): 2 µg/mL (≈ 1.18 µM); MIC (E. faecium E8218): ≤0.008 µg/mL; MIC (E. faecium E8235): ≤0.008 µg/mL |
| CCCCCCCCNC(N)=Nc1ccc(CN[C@@]2(C)C[C@H](O[C@H]3[C@H](Oc4c5cc6cc4Oc4ccc(cc4Cl)[C@@H](O)[C@@H](NC(=O)[C@@H](CC(C)C)NC)C(=O)N[C@@H](CC(N)=O)C(=O)N[C@H]6C(=O)N[C@H]4C(=O)N[C@H](C(=O)N[C@H](C(=O)O)c6cc(O)cc(O)c6-c6cc4ccc6O)[C@H](O)c4ccc(c(Cl)c4)O5)O[C@H](CO)[C@@H](O)[C@@H]3O)O[C@@H](C)[C@H]2O)cc1 [Compound 6] | >128 µg/mL | >128 µg/mL | >128 µg/mL | >128 µg/mL | >128 µg/mL | >128 µg/mL | ≤0.008 µg/mL | 0.5 µg/mL (≈ 0.293 µM) | ≤0.008 µg/mL | ≤0.007812 µg/mL | ≤0.008 µg/mL | ≤0.007812 µg/mL | 8 µg/mL (≈ 4.68 µM) | 8 µg/mL (≈ 4.68 µM) | 2 µg/mL (≈ 1.17 µM) | ≤0.008 µg/mL | 0.031 µg/mL (≈ 0.0181 µM) | 2 µg/mL (≈ 1.17 µM) | ≤0.008 µg/mL | 0.5 µg/mL (≈ 0.293 µM) | MIC (E. faecium E0506): 2 µg/mL (≈ 1.17 µM); MIC (E. faecium E8218): ≤0.008 µg/mL; MIC (E. faecium E8235): ≤0.008 µg/mL |

Source: US20230174584A1, “Antibiotic Compounds” (priority 2019, published 2023)
